Reference: PubChem BioAssay AID651703 (Broad Institute, 2012)

target: Transforming acidic coiled-coil-containing protein 3 (Homo sapiens) (UniProt Q9Y6A5); assay: ARNT/TACC3 interaction disruptors, potency, confirmation, biochemical, AlphaScreen, cherry-picked samples (AID 651703); conditions: AlphaScreen His-ARNT PAS-B / GST-TACC3 binding, luminescence;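 also: TACC3 partner is the GST-tagged E629A mutant dimer; hits lower the signal meaning they disrupt ARNT binding to TACC3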

Structure (SMILES) | AC50 [µM]
Cc1ccc(S(=O)(=O)CCc2nnc(NC(=O)c3ccccn3)s2)cc1 | 3.01
OCC1CCN(Cc2ccc(O)c3ncccc23)CC1 | < 0.5
CC(C)[C@H](NC(=O)c1ccccc1Cl)C(=O)Nc1nc(-c2ccccn2)cs1 | 6.72
O=C(COc1ccccc1F)Nc1nc(-c2ccccn2)cs1 | 8.38
CC(C)(C)CCNC(=O)c1cc(-c2ccccc2)on1 | 21.5
Cc1nnc(NC(=O)c2ccc(S(=O)(=O)N3CCCCC3C)cc2)o1 (stereo unspecified) | 52
O=C(N/N=C/c1cc(Br)ccc1OC(=O)c1ccc(Br)cc1)c1ccncc1 | 4.24
COc1ccccc1-c1nnc(NC(=O)Cc2ccccc2)o1 | 35
Cc1[nH]n(-c2ccccc2)c(=O)c1/C=N/NC(=O)c1cccc(F)c1 | 9.69
CCN(C(=O)Cc1nc(N)n[nH]1)C1(C(=O)Nc2ccccc2)CCCCC1 | 20
COCCn1c(-c2ccccc2)cnc1N | 31.1
Cc1nc2ccccc2c(=O)n1/N=C/c1ccc(O)c(O)c1O | 25.9
O=S(=O)(N[C@H]1CC[C@H](CCn2cc(-c3ccccn3)nn2)O[C@@H]1CO)c1cccc(F)c1 | 10.7
CCO/C=C1/C(=O)N(Cc2ccccc2)C(=O)c2ccccc21 | 29
O=C(O)C1Nc2c(O)cc(Cl)c([N+](=O)[O-])c2C2C=CCC12 (stereo unspecified) | 28.1
O=C(NCCCn1ccnc1)C(=O)NCC1OCCN1S(=O)(=O)c1cc(F)ccc1F (stereo unspecified) | 3
Cc1ccc2cc(C3C(C#N)=C(N)Oc4c3ccc3cccnc43)c(=O)[nH]c2c1 (stereo unspecified) | 7.43
CCOC(=O)Cc1nnc(NC(=O)c2ncn[nH]2)s1 | 23.2
CN(C)CCCNC(=O)c1ccc(-c2cc(O)c3ncccc3c2)cc1 | 2.78

Structure (SMILES) | AC50 [µM]
Cc1cc(=O)n2c3c(c4c(cc13)c(CN(C)C)cc(=O)n4C)OC2 | 17.7
O=Nc1ccc(O)c2ncccc12 | 13.6
CCN(CCCl)c1cc(CN(C)C)cc(NC(=O)c2ccc(C(=O)Nc3cc(CN(C)C)cc(N(CC)CCCl)c3)cc2)c1 | 1.92
CCCCn1c(NC(=O)c2ccco2)c(C(=O)OCC)c2nc3ccccc3nc21 | 21.9
c1ccc(-c2ccc(CNc3nc(-c4ccccn4)nnc3-c3ccccc3)cc2)cc1 | 1.6
Oc1ccc(CN2CCC3CCCCC3C2)c2cccnc12 (stereo unspecified) | 1.22
c1cncc(-c2nc(NCCCn3ccnc3)c3ccccc3n2)c1 | 16.2
N/C(=N\OC(=O)Cc1ccc([N+](=O)[O-])cc1)c1ccccn1 | 21.5
Cc1ccc(C(=O)Nc2nc(-c3ccccn3)cs2)s1 | 4.78
CC1CCCN(S(=O)(=O)c2ccc(C(=O)Nc3nnc(C4CC4)o3)cc2)C1 (stereo unspecified) | 31.9
O=S(=O)(N[C@H]1CC[C@H](CCn2cc(-c3ccccn3)nn2)O[C@@H]1CO)c1cccc(Cl)c1 | 19.2
CCOc1cc(/C=C2\SC(=N)N(c3nccs3)C2=O)ccc1OCCN1CCOCC1 | 35
COc1ccc(NC(=O)Nc2ccc3c(c2)CC(=O)N([C@@H](C)CO)C[C@@H](C)[C@H](CN(C)Cc2ccc(Oc4ccccc4)cc2)O3)cc1 | 23.2
Oc1ccc(Br)cc1/C=N/Nc1ccccn1 | 3.27
COc1cc2c(cc1OC)-c1c3c(cc4c1[C@@H](C2)N(C)CC4)OCO3 | 17.6
COCc1cc(CN2CCN(C)CC2)c(O)c2ncccc12 | 1.14
O=C(N[C@@H]1CC[C@H](CCn2cc(-c3ccccn3)nn2)O[C@H]1CO)c1ccccc1 | 27.6
O=S1(=O)N=C(N(CCO)/N=C/C=C/c2ccccc2)c2ccccc21 | 53.9
C/C(=N\NC(=O)C(C)Oc1ccc([N+](=O)[O-])cc1)c1ccccn1 (stereo unspecified) | 4.39

Structure (SMILES) | AC50 [µM]
CCC(=O)NC(C)c1cc(Cl)c2cccnc2c1O (stereo unspecified) | 4.72
COc1cc2c(c(OC)c1OC)-c1ccc(O)c(=O)cc1[C@@H](N)CC2 | 29.7
CCC(=O)NC(c1ccc(C)cc1)c1ccc2cccnc2c1O (stereo unspecified) | 4.71
O=C(CSc1n[nH]c(-c2ccccn2)n1)Nc1ccccc1 | 0.706
O=C(CN1CC(=O)Oc2ccccc21)NCc1ccco1 | 2.05
O=S(=O)(N[C@@H]1CC[C@H](CCn2cc(-c3ccccn3)nn2)O[C@H]1CO)c1cccc(F)c1 | 18.2
C/C(=N\NC(=O)c1cccc2ccccc12)c1ccccn1 | 3.15
O=C(Nc1nc(-c2ccccn2)cs1)c1ccc(Cl)s1 | 3.61
FC(F)(F)c1cnc(C(c2ccccn2)c2ncn[nH]2)c(Cl)c1 (stereo unspecified) | 3.93
Nc1ccc2nc(-c3ccccn3)[nH]c2c1 | 10.1
CC(C)(C)C1=CC(=Nc2ccccc2N)C=C(C(C)(C)C)C1=O | 1.47
Cc1ccc(Nc2c(-c3ccccn3)nc3cccc(C)n23)cc1 | 3.62
Cc1cccc(OCc2nc(-c3ccccn3)n[nH]2)c1 | 5.94
C[C@@H]1CN([C@H](C)CO)S(=O)(=O)c2ccc(C3=CCCC3)cc2O[C@H]1CN(C)Cc1ccccn1 | 70
CO[C@@H]1CN(C)C(=O)c2cc(NS(=O)(=O)CC(F)(F)F)ccc2OC[C@@H](C)N(C(=O)c2ccc3c(c2)OCO3)C[C@@H]1C | 58
CO[C@@H]1CN(C)C(=O)c2ccc(NC(=O)c3ccccn3)cc2OC[C@@H](C)N(Cc2ccccn2)C[C@H]1C | 7.1
O=C(N[C@@H]1CC[C@H](CCn2cc(-c3ccccn3)nn2)O[C@@H]1CO)c1ccncc1 | 8.23
C(=N\Nc1ccc2nncn2n1)/c1ccccn1 | 14
